Read-outs that look alike come from different tables or passages of the source. Marks after values point to notes of the source that are not given here.
What was measured:
porcine brain tubulin = target: T1, porcine brain tubulin (Sus scrofa, UniProt P02550+P02554); test: Inhibition of tubulin polymerization (turbidity, absorbance at 340 nm); type: biochemical
T1 construct: porcine brain tubulin; purchased Cytoskeleton, Inc., Denver, Colorado; host or cells: porcine brain (tissue-purified)
Description: The effect of CLR01 on tubulin polymerization was analyzed using a commercial kit (Cytoskeleton, Inc., Denver, Colorado). Three mg/ml porcine brain tubulin (~18 μM) were allowed to polymerize at 37 °C in the absence or presence of CLR01 concentrations ranging from 10–1,000 μM. The turbidity of the solution was measured as absorbance at λ = 340 nm using a Synergy HT microplate reader (BioTek, Winooski, VT). The data are an average of three independent experiments with two wells per condition.
As stated above, the mechanism by which CLR01 remodels the assembly of amyloidogenic proteins into non-toxic assemblies that can be degraded by normal clearance mechanisms is by its specific binding to Lys residues. The mechanism is “process-specific” because it is postulated to affect only the aberrant assembly of proteins that leads to toxic oligomers and aggregates, but not normal protein structure, function, or assembly as happens, e.g., in tubulin polymerization. To test whether this indeed is the case, we examined the effect of CLR01 on tubulin polymerization. Three mg/ml (~18 μM) porcine brain tubulin, which contains 3.8% Lys and 4.8% Arg, was allowed to polymerize in the absence or presence of CLR01 concentrations ranging from 10–1,000 μM.

C57BL/6J mice = test: Chronic toxicity: daily IP injection for 30 days, behaviour, histopathology and serum chemistry; type: in vivo, mouse; conditions: for Alanine aminotransferase / Albumin / Alkaline phosphatase / Aspartate aminotransferase / Blood urea nitrogen / Cholesterol / Creatinine / Glucose / Lactate dehydrogenase / Total bilirubin / Total protein: serum, 2-m old WT mice, chronic, 30 day, mean
Description: For acute-toxicity studies, 2-m old C57BL/6J mice were administered saline-vehicle, 10 mg/kg, or 100 mg/kg CLR01 by a single intraperitoneal (IP) injection. The mice were sacrificed 24-h after the injection. For chronic toxicity studies, 2-m old C57BL/6J mice were administered saline-vehicle, 3 mg/kg, or 10 mg/kg CLR01 by daily IP injection for 30 days. Acute-study mice were visually monitored for 1 h after injection and then every 50 min for 10 min over the first 6 h of the experiment for changes in activity and behavior. The mice also were monitored every 110 min for 10 min during the last 6 h of the experiment until they were sacrificed. Chronic-study mice were monitored for 1 h after injection and then 3 times a day for 10 min each, every day of the first week. During that week there were no appreciable changes in the behavior, appearance, or weight of the mice. Therefore, monitoring was reduced to twice a day during the remainder of the experiment. On all occasions, the mice were monitored for any signs of severe toxicity, including bruising or bleeding, pale mucous membranes or extremities, diarrhea, dehydration, neurological signs, such as difficulty ambulating or paralysis, tachypnea or dyspnea, or abdominal distension.
Following the treatment, mice were anesthetized with pentobarbital and blood was collected by cardiac puncture and placed in tubes containing a clot activator for serum separation (Capiject T-MG tubes, Terumo Medical Products, Somerset, NJ). Then, the lungs were filled through the trachea with 4% paraformaldehyde to prevent collapse, and tissues (brain, heart-lung, liver, kidney, and spleen) were collected and fixed for 72 h in 4% paraformaldehyde at a ratio of ~1:10 tissue:fixative (v/v). Tissues then were transferred into a 70%-ethanol solution and transferred to the UCLA Mouse Pathology Core for paraffin embedding, sectioning, and tissue histopathology analysis. Serum was analyzed by the UCLA Division of Laboratory Animal Medicine (DLAM) Animal Serology & Molecular Diagnostic Laboratory for an 11-panel serum chemical analysis using the ACE Alera Clinical Chemistry system (Alfa Wassermann Diagnostic Technologies, West Caldwell, NJ). The panel included: alanine aminotransferase, aspartate aminotransferase, albumin, alkaline phosphatase, creatinine, total bilirubin, lactate dehydrogenase, blood urea nitrogen, cholesterol, total protein, and glucose.
If CLR01 indeed operates by a process-specific mechanism and remodels the abnormal aggregation of amyloidogenic proteins at substantially lower concentrations than concentrations that would perturb normal physiological processes, one would expect the compound to have a high therapeutic index. To calculate the therapeutic index, a lethal dose must be reached. […] The next rational step was to test the safety margin of CLR01 in vivo. Based on the in vitro and cell culture data, we expected that 100 mg/kg would be lethal to mice and therefore used it as the highest dose in our safety-evaluation experiments. We assessed the safety of CLR01 in 2-m old, male, WT mice either 24 h following a single IP injection of 10 or 100 mg/kg (acute administration) or after daily IP injection of 3 or 10 mg/kg for 30 days (chronic administration). Following euthanasia, serum was collected for chemical analysis and tissues were harvested for histopathology evaluation.

[1] = Blood-brain barrier permeability with 3H-CLR01 IV (scintillation counting of blood and brain); type: in vivo, mouse; conditions: 40-μg/kg/day dose, 15-m old 3×Tg mice, estimate
[2] = design: method as in PMID 23183235; conditions: mouse plasma; cited from earlier work
[3] = design: method as in PMID 23183235; conditions: mouse liver microsomes; cited from earlier work
α-synuclein (α-syn) = system: α-synuclein (α-syn); design: method as in PMID 22373667; conditions: up to 10 μM in the water environment; cited from earlier work
[4] = daily IP 3 or 10 mg/kg for 30 days

T1 sequence (P02550 whole entry): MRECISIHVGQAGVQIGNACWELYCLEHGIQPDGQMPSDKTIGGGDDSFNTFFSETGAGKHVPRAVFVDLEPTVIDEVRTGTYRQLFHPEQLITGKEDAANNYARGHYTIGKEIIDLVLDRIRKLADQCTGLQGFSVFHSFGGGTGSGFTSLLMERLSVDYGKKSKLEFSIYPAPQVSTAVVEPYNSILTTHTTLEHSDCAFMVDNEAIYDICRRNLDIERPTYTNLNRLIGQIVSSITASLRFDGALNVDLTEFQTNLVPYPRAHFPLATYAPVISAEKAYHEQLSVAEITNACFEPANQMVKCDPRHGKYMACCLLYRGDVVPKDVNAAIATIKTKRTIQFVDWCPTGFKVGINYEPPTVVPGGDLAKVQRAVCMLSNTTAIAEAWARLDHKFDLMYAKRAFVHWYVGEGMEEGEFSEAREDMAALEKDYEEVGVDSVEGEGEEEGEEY
T1 sequence (P02554 whole entry): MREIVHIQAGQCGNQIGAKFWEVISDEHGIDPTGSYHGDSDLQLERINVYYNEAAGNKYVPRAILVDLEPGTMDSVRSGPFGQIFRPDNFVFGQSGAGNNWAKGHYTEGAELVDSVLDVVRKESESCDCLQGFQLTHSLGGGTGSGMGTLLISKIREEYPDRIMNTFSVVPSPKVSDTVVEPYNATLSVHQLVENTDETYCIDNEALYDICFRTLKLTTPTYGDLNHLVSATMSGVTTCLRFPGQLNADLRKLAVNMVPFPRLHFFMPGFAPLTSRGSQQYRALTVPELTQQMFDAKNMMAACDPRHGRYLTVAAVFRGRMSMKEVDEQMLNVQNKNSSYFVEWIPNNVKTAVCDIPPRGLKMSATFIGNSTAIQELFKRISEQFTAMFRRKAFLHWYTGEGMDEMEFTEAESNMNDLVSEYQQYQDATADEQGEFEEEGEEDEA

With `O=P(O)(O)Oc1c2c(c(OP(=O)(O)O)c3c1C1CC3c3cc4c(cc31)C1CC4c3ccccc31)C1CC2c2cc3c(cc21)C1CC3c2ccccc21` [CLR01] the “Concentration ratio for disruption of tubulin polymerization relative to ratios needed for inhibition of aggregation of amyloidogenic proteins” value (porcine brain tubulin) was 20–50 times higher, the “Absorbance observed immediately (λ = 340 nm)” value (porcine brain tubulin; 1,000 μM CLR01, 0.05-0.09 without or with up to 300 μM) was 0.15 absorbance units and the “Concentrations that did not significantly affect the polymerization of tubulin” value (porcine brain tubulin; 3 mg/ml (~18 μM) tubulin, 37 °C) was “up to 300 μM”. The “Concentration at which significant modulation of tubulin polymerization was observed” value (porcine brain tubulin; 3 mg/ml (~18 μM) tubulin, 37 °C, CLR01 tested at 10–1,000 μM) was 1,000 μM, the “Chronically administered dose without toxicity relative to the efficacious dose of 40 μg/kg/day” value (C57BL/6J mice; 10 mg/kg/day) was 250 times and the Liver histopathology (C57BL/6J mice; daily IP 3 mg/kg for 30 days, a few mice, judged not pathogenic and unlikely related to treatment) was “mild-to-moderate multifocal extramedullary hematopoiesis in the liver”. For the same molecule, the Pancreas finding (C57BL/6J mice; daily IP 3 mg/kg for 30 days, two mice, unlikely related to treatment) was “Mild pancreatitis”, the “Reduction in blood cholesterol compared to the control group” value (C57BL/6J mice; daily IP 10 mg/kg for 30 days) was ~ 40% and the Tissue histopathology (C57BL/6J mice; daily IP 10 mg/kg for 30 days) was “no signs of tissue pathology or liver necrosis”. The “Behavior (levels and type of activity and grooming)” value (C57BL/6J mice; [4]) was “behaved indistinguishably from control mice”, the “Histopathology of heart, lung, spleen and brain” value (C57BL/6J mice; [4]) was “indistinguishable from vehicle-treated mice” and the Alanine aminotransferase (C57BL/6J mice; daily IP dose 3 mg/kg, N = 10) was 43.1 U/L. It also gave an Albumin (C57BL/6J mice; daily IP dose 3 mg/kg, N = 10) of 2.8 g/dL, an Alkaline phosphatase (C57BL/6J mice; daily IP dose 3 mg/kg, N = 10) of 104.4 U/L and an Aspartate aminotransferase (C57BL/6J mice; daily IP dose 3 mg/kg, N = 10) of 150.9 U/L. For the same molecule, the Blood urea nitrogen (C57BL/6J mice; daily IP dose 3 mg/kg, N = 10) was 22.3 mg/dL, the Cholesterol (C57BL/6J mice; daily IP dose 3 mg/kg, N = 10) was 80.9 mg/dL and the Creatinine (C57BL/6J mice; daily IP dose 3 mg/kg, N = 10) was 0.3 mg/dL. It also gave a Glucose (C57BL/6J mice; daily IP dose 3 mg/kg, N = 10) of 256.7 mg/dL, a Lactate dehydrogenase (C57BL/6J mice; daily IP dose 3 mg/kg, N = 10) of 507.0 U/L and a Total bilirubin (C57BL/6J mice; daily IP dose 3 mg/kg, N = 10) of 0.2 mg/dL. The Total protein (C57BL/6J mice; daily IP dose 3 mg/kg, N = 10) was 4.7 g/dL, the Alanine aminotransferase (C57BL/6J mice; daily IP dose 10 mg/kg, N = 9) was 38.4 U/L and the Albumin (C57BL/6J mice; daily IP dose 10 mg/kg, N = 9) was 2.7 g/dL. It also gave an Alkaline phosphatase (C57BL/6J mice; daily IP dose 10 mg/kg, N = 9) of 106.1 U/L, an Aspartate aminotransferase (C57BL/6J mice; daily IP dose 10 mg/kg, N = 9) of 236.2 U/L and a Blood urea nitrogen (C57BL/6J mice; daily IP dose 10 mg/kg, N = 9) of 24.1 mg/dL. It also gave a Creatinine (C57BL/6J mice; daily IP dose 10 mg/kg, N = 9) of 0.2 mg/dL, a Glucose (C57BL/6J mice; daily IP dose 10 mg/kg, N = 9) of 233.9 mg/dL and a Lactate dehydrogenase (C57BL/6J mice; daily IP dose 10 mg/kg, N = 9) of 483.0 U/L. The Total bilirubin (C57BL/6J mice; daily IP dose 10 mg/kg, N = 9) was 0.2 mg/dL, the Total protein (C57BL/6J mice; daily IP dose 10 mg/kg, N = 9) was 4.6 g/dL and the Cholesterol (C57BL/6J mice; daily IP dose 10 mg/kg, N = 9, p < 0.01 vs control) was 56.8** mg/dL. The “Estimated amount of CLR01 entering the brain per day” value [1] was ~ 200 fmol, the Stability [2] was 100% and the Stability [3] was 100%. For the same molecule, the “Effect in zebrafish model of α-syn toxicity” value (α-synuclein (α-syn)) was “prevented deformation and mortality”.

Source: PMC3996151, “Safety and pharmacological characterization of the molecular tweezer CLR01 – a broad-spectrum inhibitor of amyloid proteins’ toxicity” (BMC Pharmacology & Toxicology, 2014)
